Assay: Compaction assay: percent liquid fraction of CF sputum
Parameters: species or system human
Details: for percent liquid fraction: 20 min (FIG. 3A)
Method: CF sputum stored at −80° C. was thawed at room temperature and aliquoted into 1.5 ml Eppendorf centrifuge tubes at volumes of 275 μl using a positive displacement pipette (Rainin, Emeryville, Calif.). Sputum samples were subjected to either diluent (H2O), Trx+TR+NADPH, GSH+glutathione reductase+NADPH, dithiothreitol (DTT) or N-acetylcysteine treatment by the addition of 25 μl of H2O containing the appropriate molar concentration of each agent. After brief vortexing (˜1 second), sample tubes were loaded onto a microtube rotisserie (Barnstead, Dubuque, Iowa) and incubated at 37° C. for 20 minutes. Samples were then processed for compaction assay according to methodology originated by Daugherty et al. (Daugherty et al., Biomaterials 16:553-558, 1995). To perform the assay, the contents of each sample were loaded into 100 μl glass micro-capillary tubes (Fisher Scientific) that had been previously welded to 200 μl pipette tips in order to achieve a tight fit. Three modified capillary tubes were used to draw up >90% of each sputum sample. Capillary tubes were then removed from their pipette tip, sealed with clay, and centrifuged for 10 minutes in a hematocrit centrifuge (IEC, Needham Heights, Mass.), followed by measurement of the length in millimeters of the gel (solid) and aqueous (liquid) phases in each tube. The percent liquid fraction of each capillary tube was calculated by dividing aqueous phase length by total length (gel+aqueous)×100. The three measurements of the liquid fraction (%) derived from each sample were then averaged to generate a single value for each treatment condition.
Due to abnormal ion transport caused by defects in the CFTR gene, airway secretions in CF patients are often desiccated. As a consequence, purulent CF sputum is comprised largely of a rigid and nonflowing biopolymer matrix, often referred to as gel phase, and lesser amounts of soluble, liquid phase. To assess the effect of Trx on the ratios of these two phases in sputum, compaction assay measurements were performed. […] After 20 minute incubation, the liquid fraction of each sample was determined by compaction assay.
To examine the effect of NADPH, additional samples from different donors were treated with 30 μM Trx, 0.1 μM TR and either 0, 0.2, 0.6, 1.0 or 2 mM NADPH for 20 minutes.
To assess the reproducibility of compaction assay measurements, sputum samples from three different CF donors were separated into aliquots and frozen. Specifically, freshly isolated CF sputum from three different donors (A, B, C) was separated into 275 μl aliquots and frozen. […] Results obtained from three independent experiments performed on each donor sample were used to evaluate assay reproducibility. On three consecutive days, aliquots were thawed, and treated with water, Trx and its reducing system, dithiothreitol (DTT), or no treatment.
The effectiveness of Trx in liquefying sputum was compared with other monothiol and dithiol reducing agents. Sputum samples were aliquoted and treated with Trx or GSH for 20 minutes and percent liquid determined by compaction assay. Initial compaction assay experiments compared the potencies of the Trx and GSH reducing systems in liquefaction of sputum in the presence of equimolar concentrations of NADPH. […] The analysis of Trx and NAC efficacy also was determined after 20 minute incubation, but on a different set of sputum samples.

Question: With “Trx: Lyophilized recombinant E. coli Trx from Promega; protein disulfide reductase, used with its reducing system (TR + NADPH)” as the substance, how does the percent liquid fraction (10 μM Trx + 0.1 μM TR + 2 mM NADPH) read?
Answer: 34.8±6.6%

Question: And the percent liquid fraction (30 μM Trx + 0.1 μM TR + 2 mM NADPH)?
Answer: 54.6±10.4%

Question: And the “percentage of sputum present in the liquid phase” value (30 μM Trx + 0.1 μM TR + 2 mM NADPH, 20 min, different donors (FIG. 1B))?
Answer: 70.55±18.13%

Question: What about the “percentage of sputum present in the liquid phase” value (30 μM Trx + 0.1 μM TR without NADPH, 20 min (FIG. 1B)) of the same substance?
Answer: 2.9%±1.3

Question: And the percent liquid fraction (60 μM Trx + 0.1 μM TR + 2 mM NADPH)?
Answer: 67.0±8.0%

Question: And the “3 day range of percent of sputum in the liquid state” value (donor B, 30 μM Trx with reducing system)?
Answer: 46-51%

Question: And the “range of percent liquid values” (donor C, 30 μM Trx with reducing system)?
Answer: 62-81%
